Test results taken from patent US7335815B2, “Nucleic acid sequences to proteins involved in isoprenoid synthesis” (Calgene LLC, priority 1999, dated 2008).

Assays:
[1] = system: E. coli strain JC7623dxr:CAT; assay: growth of dxr-disrupted E. coli strain JC7623dxr:CAT (ME auxotrophy, complementation studies); type: cell-based, Escherichia coli; details: strain JC7623dxr:CAT carrying plasmid pBAD-DXR or pBAD-GFPuv
Excerpt: The region extending from the 5′-region of the dxr gene to the 3′-flanking region of the yaeS gene was amplified by PCR using genomic DNA isolated from the wild type E. coli strain-W3110 (Kohara et al., 1987) and the primers P1(5′-CTCTGGATGT CATATGAAGCAACTC-3′ (SEQ ID NO:3); the underlined ATG corresponds to the translation start codon of the dxr gene) and P2 (5′-CCGCATAACACCGCCAACC-3′ (SEQ ID NO:4); located at the 3′-flanking region of the yaeS gene). The reaction mixture for the PCR was prepared in a final volume of 50 μl, containing the DNA template (100 ng), 0.5 μM of each primer, 200 μM of each deoxynucleoside triphosphate, 20 mM of Tris-HCl adjusted to pH 8.8, 2 mM Of MgSO4, 10 mM of KCI, 10 mM of (NH4)2SO4, 0.1 mg/ml of BSA and 0.1% Triton X-100. The sample was covered with mineral oil, incubated at 94° C. for 3 min and cooled to 80° C. Pfu DNA polymerase (1.25 units, Stratagene) was added and the reaction mixture was incubated for 30 cycles consisting of 45 sec at 94° C., 45 sec at 59° C. and 10 min at 72° C., followed by a final step of 10 min at 72° C. After amplification, adenines were added to the 3′ ends of the PCR product as indicated by the manufacturers protocol and the adenylated product was cloned into the pGEM-T vector (Promega), to create plasmid pMJ1. […]

[2] = background statement; cited from earlier work

Row | SMILES | growth of strain on medium containing the substance [1] | vitamin E activity [2] [IU/mg]
1 | C[C@](O)(CO)[C@H](O)CO [ME, 2-C-methyl-D-erythritol] | grows on medium containing ME | 
2 | Cc1c(C)c2c(c(C)c1O)CC[C@@](C)(CCC[C@H](C)CCC[C@H](C)CCCC(C)C)O2 [d-α-tocopherol] |  | 1.49
3 | Cc1c(C)c2c(c(C)c1O)CCC(C)(CCCC(C)CCCC(C)CCCC(C)C)O2 (stereo not drawn) [synthetic α-tocopherol, d,l-α-tocopherol] |  | 1.1
